From patent US20100174007A1, “Haloneopentyl Bis(ALKYL) Phosphate Ester, Flame Retardant Composition Containing Same and Polyurethane Foam Prepared Therewith” (priority 2007, published 2010)

What was measured:
[1] = tested on: Salmonella typhimurium TA1535; test: Ames test, strain TA1535; assay type: cell-based; details: with and without metabolic activation; base-pair substitution strain; further: key: +: Plus sign indicates observed mutagenic effects; −: minus sign indicates non-mutagenic property
Procedure: (§1) In each Ames test, a single chemical substance was evaluated in the four standard Salmonella typhimurium tester strains, TA1535, TA1537, TA98, and TA100. Strains TA1535 and TA100 identify mutagens that act via base-pair substitution whereas TA1537 and TA98 identify mutagens capable of causing frameshifts in the DNA. The bacterial strain E. coli WP2uvrA was also included as another sensitive tester strain. Each test was conducted with and without metabolic activation.

[2] = tested on: Salmonella typhimurium TA1537; test: Ames test, strain TA1537; assay type: cell-based; details: with and without metabolic activation; frameshift strain; further: key: +: Plus sign indicates observed mutagenic effects; −: minus sign indicates non-mutagenic property
Procedure: as §1

[3] = tested on: Salmonella typhimurium TA98; test: Ames test, strain TA98; assay type: cell-based; details: with and without metabolic activation; frameshift strain; further: key: +: Plus sign indicates observed mutagenic effects; −: minus sign indicates non-mutagenic property
Procedure: as §1

[4] = tested on: Salmonella typhimurium TA100; test: Ames test, strain TA100; assay type: cell-based; details: with and without metabolic activation; base-pair substitution strain; further: key: +: Plus sign indicates observed mutagenic effects; −: minus sign indicates non-mutagenic property
Procedure: as §1

E. coli WP2uvrA = assay type: cell-based
Procedure: as §1

rats = test: Acute oral toxicity, limit dose; assay type: in vivo
Procedure: No rats died after the administration of an oral limit dose of 5000 mg/kg of products from Example 1(B). Clinical signs were minimal and all rats fully recovered by day 3. The acute oral LD50 was greater than 5000 mg/kg.

Row | Compound | Ames test result TA1535 [1] | Ames test result TA1537 [2] | Ames test result TA98 [3] | Ames test result TA100 [4] | Ames test result WP2uvrA (E. coli WP2uvrA) | acute oral LD50 (rats; oral) | mortality after oral limit dose (rats; oral limit dose of 5000 mg/kg) | clinical signs after oral limit dose (rats; oral limit dose of 5000 mg/kg, all rats fully recovered by day 3)
1 | CC(C)(C)c1ccccc1OP(=O)(OC(CCl)CCl)OC(CCl)CCl [O-tert-Butylphenyl bis(1,3-dichloro-2-propyl)phosphate] | + | − | − | + | − |  |  | 
2 | O=P(OCC(CBr)(CBr)CBr)(OC(CCl)CCl)OC(CCl)CCl [Phosphoric acid, 3-bromo-2,2-bis(bromomethyl)propyl bis[2-chloro-1-(chloromethyl)ethyl]ester] | − | − | − | + | − |  |  | 
3 | tribromoneopentyl bis(isobutyl)phosphate [Products of 1(B)] | − | − | − | − | − | greater than 5000 mg/kg | No rats died | minimal
